This note sets out measurements from patent US7695948B2, “Antibodies that bind TNF-α converting enzyme” (Immunex Corporation, priority 1995, dated 2010).

This experiment deals with T1, TACE (Homo sapiens, UniProt P78536).
T1 construct: The TACE was isolated and purified from the membranes of the human monocytic cell line, THP-1; endogenous in cells; host or cells: THP-1 human monocytic cell line (ATCC TIB 202), stimulated to produce TNF-α; Enzyme was solubilised from plasma membranes and purified by chromatography
T1 sequence (P78536 215-824): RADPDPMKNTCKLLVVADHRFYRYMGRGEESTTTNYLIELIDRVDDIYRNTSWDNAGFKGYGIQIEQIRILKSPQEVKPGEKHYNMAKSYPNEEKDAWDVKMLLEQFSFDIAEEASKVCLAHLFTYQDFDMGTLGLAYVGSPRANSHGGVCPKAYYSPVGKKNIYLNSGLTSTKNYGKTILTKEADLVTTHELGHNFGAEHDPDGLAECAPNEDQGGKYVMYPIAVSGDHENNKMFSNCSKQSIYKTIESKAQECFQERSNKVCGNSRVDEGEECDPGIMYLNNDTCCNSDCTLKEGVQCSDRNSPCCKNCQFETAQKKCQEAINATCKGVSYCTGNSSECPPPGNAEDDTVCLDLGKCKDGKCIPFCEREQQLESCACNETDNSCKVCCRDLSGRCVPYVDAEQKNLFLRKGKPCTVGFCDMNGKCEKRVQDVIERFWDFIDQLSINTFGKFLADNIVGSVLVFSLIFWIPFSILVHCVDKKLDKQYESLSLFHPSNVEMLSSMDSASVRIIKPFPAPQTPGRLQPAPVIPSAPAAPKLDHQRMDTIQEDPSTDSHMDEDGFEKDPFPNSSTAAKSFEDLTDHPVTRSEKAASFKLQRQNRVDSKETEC
Briefly: TACE activity assay (cleavage of TNF-α peptide substrate, HPLC). In kind it is biochemical. The conditions noted are these: dithiothreitol included in plasma membrane isolation from THP-1 cells. The procedure:
As further described in Example 1, infra, a quantitative assay for TACE also may be used which assay involves incubating the peptide substrate, at about 1 mM, with TACE at 37° C. for a fixed period of time; stopping the reaction by the addition of an acid or a metal chelator; and determining the extent of cleavage by HPLC analysis.
This Example describes a method for purifying TACE. The TACE was isolated and purified from the membranes of the human monocytic cell line, THP-1, (ATCC no. TIB 202) that had been stimulated to produce TNF-α. THP-1 cells were chosen because they produce more TNF-α than HL-60 cells, a more commonly used human monocytic cell line. […]
This material was incubated at 37° C. for at least 4 hours with the TACE eluted from the DEAE-Sepharose, that had been treated with 1 mM N-methoxysuccinyl-Ala-Ala-Val -chloro-methylketone, 10 μg/ml leupeptin, and 1 mg/ml α1-protease inhibitor, all of which are commercially available. […] Based on this observation, a quantitative assay was established: the peptide, at 1 mM, was incubated with the enzyme at 37° C. for a fixed period of time, in the presence of 0.1 mM dichloroisocoumarin, 1 mM methoxysuccinyl-Ala-Ala-Pro-Val-chloromethyl-ketone, 10 μg/ml leupeptin, 10 μM bestatin, and 1 mg/ml α1-protease inhibitor (Sigma), all of which are commercially available. […]

Regarding `O[C@H](CS)[C@H](O)CS` (racemic) [dithiothreitol], the TACE activity result is recorded as “blocks TACE activity”.
